The results in this text go back to patent publication US11478426B2, “Abuse deterrent immediate release capsule dosage forms” (SpecGX LLC, priority 2018, dated 2022).

The subject of this data set is Slug species. Put plainly: Slug irritation test (mucus production as model of nasal irritation). It is filed as in vivo. The note with it: 15 min exposure, mean ± SEM (n). How it is done: The organic acid of the capsule contents was tested for potential nasal irritation using a slug irritation model.

On to “Benzalkonium Chloride [Benzalkonium Chloride (BAC)]”, for which, under “dose 1%”, the “Mucus Production (% of Body Weight)” value was 24.7 ± 2.1 (3) % of Body Weight.
With `CCCCCCCCCCCCOS(=O)(=O)[O-].[Na+]` [Sodium Lauryl Sulfate], the “Mucus Production (% of Body Weight)” value (dose 0.3 mg) was 5.9 ± 2.0 (6) % of Body Weight; the “Mucus Production (% of Body Weight)” value (dose 1.0 mg) is 9.5 ± 2.1 (9) % of Body Weight; the “Mucus Production (% of Body Weight)” value (dose 3.0 mg) is on record as 13.4 ± 2.6 (3) % of Body Weight; the “Mucus Production (% of Body Weight)” value (dose 5.0 mg) is on record as 9.8 ± 2.1 (6) % of Body Weight; the “Mucus Production (% of Body Weight)” value (dose 10 mg) is given as 16.6 ± 0.9 (3) % of Body Weight; the “Mucus Production (% of Body Weight)” value (dose 15 mg) was 22.7 ± 4.5 (3) % of Body Weight. For the same compound, under “dose 20 mg”, the “Mucus Production (% of Body Weight)” value was 26.2 ± 3.8 (3) % of Body Weight.
Regarding `O=C(O)C(O)C(O)C(=O)O` (stereo not shown) [Tartaric Acid], the “Mucus Production (% of Body Weight)” value runs as follows: (dose 3.0 mg) 2.8 ± 2.4 (3) % of Body Weight; (dose 5.0 mg) 7.2 ± 0.7 (6) % of Body Weight; (dose 10 mg) 10.0 ± 1.3 (3) % of Body Weight; (dose 15 mg) 33.6 ± 1.1 (6) % of Body Weight; (dose 20 mg) 24.6 ± 2.8 (3) % of Body Weight.
